Source: US20220378923A1, “BET DEGRADER” (KYOWA KIRIN CO., LTD., priority 2019, published 2022)
Read-outs that look alike come from different tables or passages of the source.

System: SU-DHL-4 cells
Assay: Inhibitory effect on cell viability in SU-DHL-4 cell line (Test Example 1)
Format: cell-based, human
Conditions: SU-DHL-4 cells, 72 hours, Cell Counting Kit-8, concentration showing 90% inhibition of cell viability, read-out: SU-DHL-4 Cell Viability Inhibition Rate IC90
In short: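 SU-DHL-4 cells were grown at 37° C. under 5% CO2 in RPMI1640 with 10 vol % heat-inactivated FBS plus penicillin/streptomycin, seeded and precultured for 18 to 25 hours, then exposed to test compound at 0.1 vol % DMSO for 72 hours. Viability was read with Cell Counting Kit-8 by absorbance at 450 nm.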

| IC90 [nM] | IC90 (Homo sapiens) [nM] | Structure (SMILES) |
| --- | --- | --- |
| 3.5 |  | CCC(=O)N1c2ccccc2[C@H](Nc2ccc(C(=O)NC3CN(C(=O)c4ccc(C5=N[C@@H](CC(=O)OCCN(C)C)c6nnc(C)n6-c6sc(C)c(C)c65)cc4)C3)cc2)C[C@@H]1C [Compound 13b, 2-(Dimethylamino)ethyl 2-((S)-2,3,9-trimethyl-4-(4-(3-(4-(((2S,4R)-2-methyl-1-propionyl-1,2,3,4-tetrahydroquinolin-4-yl)amino)benzamide)azetidine-1-carbonyl)phenyl)-6H-thieno[3,2-f][1,2,4]triazolo[4,3-a][1,4]diazepin-6-yl)acetate] |
| 7.36 |  | CCC(=O)N1c2ccccc2[C@H](Nc2ccc(C(=O)NCCCNC(=O)c3ccc(C4=N[C@@H](CC(=O)OCCN(C)C)c5nnc(C)n5-c5sc(C)c(C)c54)cc3)cc2)C[C@@H]1C [Compound 13c, 2-(Dimethylamino)ethyl 2-((S)-2,3,9-trimethyl-4-(4-((3-(4-(((2S,4R)-2-methyl-1-propionyl-1,2,3,4-tetrahydroquinolin-4-yl)amino)benzamide)propyl)carbamoyl)phenyl)-6H-thieno[3,2-f][1,2,4]triazolo[4,3-a][1,4]diazepin-6-yl)acetate] |
| 3.33 |  | CCNC(=O)C[C@@H]1N=C(c2ccc(C(=O)NCCCNC(=O)c3ccc(N[C@@H]4C[C@H](C)N(C(=O)CC)c5ccccc54)cc3)cc2)c2c(sc(C)c2C)-n2c(C)nnc21 [Compound 13e, 4-((S)-6-(2-(Ethylamino)-2-oxoethyl)-2,3,9-trimethyl-6H-thieno[3,2-f][1,2,4]triazolo[4,3-a][1,4]diazepin-4-yl)-N-(3-(4-(((2S,4R)-2-methyl-1-propionyl-1,2,3,4-tetrahydroquinolin-4-yl)amino)benzamide)propyl)benzamide] |
| 11.6 |  | CCC(=O)N1c2ccccc2[C@H](Nc2ccc(C(=O)NCCCNC(=O)c3ccc(C4=N[C@@H](CC(=O)N5CCN(CCO)CC5)c5nnc(C)n5-c5sc(C)c(C)c54)cc3)cc2)C[C@@H]1C [Compound 13f, 4-((S)-6-(2-(4-(2-Hydroxyethyl)piperazin-1-yl)-2-oxoethyl)-2,3,9-trimethyl-6H-thieno[3,2-f][1,2,4]triazolo[4,3-a][1,4]diazepin-4-yl)-N-(3-(4-(((2S,4R)-2-methyl-1-propionyl-1,2,3,4-tetrahydroquinolin-4-yl)amino)benzamide)propyl)benzamide] |
| 1.7 |  | CCC(=O)N1c2ccccc2[C@H](Nc2ccc(C(=O)NCCCNC(=O)c3ccc(C4=N[C@@H](CC(=O)OCCO)c5nnc(C)n5-c5sc(C)c(C)c54)cc3)cc2)C[C@@H]1C [Compound 13g, 2-Hydroxyethyl 2-((S)-2,3,9-trimethyl-4-(4-((3-(4-(((2S,4R)-2-methyl-1-propionyl-1,2,3,4-tetrahydroquinolin-4-yl)amino)benzamide)propyl)carbamoyl)phenyl)-6H-thieno[3,2-f][1,2,4]triazolo[4,3-a][1,4]diazepin-6-yl)acetate] |
| 0.6 |  | CCC(=O)N1c2ccccc2[C@H](Nc2ccc(C(=O)NCC(=O)CNC(=O)c3ccc(C4=NCc5nnc(C)n5-c5sc(C)c(C)c54)cc3)cc2)C[C@@H]1C [Compound 14l, 4-(((2S,4R)-2-Methyl-1-propionyl-1,2,3,4-tetrahydroquinolin-4-yl)amino)-N-(2-oxo-3-(4-(2,3,9-trimethyl-6H-thieno[3,2-f][1,2,4]triazolo[4,3-a][1,4]diazepin-4-yl)benzamide)propyl)benzamide] |
| 34 |  | CCC(=O)N1c2ccccc2[C@H](Nc2ccc(C(=O)NCCCNC(=O)c3ccc(Cn4c(C(=O)OCCN(C)C)cc5c4CCCC5=O)cc3)cc2)C[C@@H]1C [Compound 15e, 2-(Dimethylamino)ethyl 1-(4-((3-(4-(((2S,4R)-2-methyl-1-propionyl-1,2,3,4-tetrahydroquinolin-4-yl)amino)benzamide)propyl)carbamoyl)benzyl)-4-oxo-4,5,6,7-tetrahydro-1H-indole-2-carboxylate] |
| 5.03 |  | CCC(=O)N1c2ccccc2[C@H](Nc2ccc(C(=O)NCCCNC(=O)c3ccc(Cn4c(C(=O)OC)cc5c4CCCC5=O)cc3)cc2)C[C@@H]1C [Compound 15g, Methyl 1-(4-((3-(4-(((2S,4R)-2-methyl-1-propionyl-1,2,3,4-tetrahydroquinolin-4-yl)amino)benzamide)propyl)carbamoyl)benzyl)-4-oxo-4,5,6,7-tetrahydro-1H-indole-2-carboxylate] |
| 0.88 |  | CCC(=O)N1c2ccccc2[C@H](Nc2ccc(NC(=O)CCCC(=O)Nc3ccc(Cn4c(CC)cc5c4CCCC5=O)cc3)cc2)C[C@@H]1C [Compound 15i] |
|  | 11.1 | CCC(=O)N1c2ccccc2[C@H](Nc2ccc(NC(=O)C3CN(C(=O)c4ccc(OCCN5CCN(C)C(=O)[C@H]5C)cc4)C3)cc2)C[C@@H]1C [Compound 16a, 1-(4-(2-((R)-2,4-Dimethyl-3-oxopiperazin-1-yl)ethoxy)benzoyl)-N-(4-(((2S,4R)-2-methyl-1-propionyl-1,2,3,4-tetrahydroquinolin-4-yl)amino)phenyl)azetidine-3-carboxamide] |
|  | 2.05 | CCC(=O)N1c2ccccc2[C@H](Nc2ccc(-c3nnc(CNC(=O)c4ccc(OCCN5CCN(C)C(=O)[C@H]5C)cc4)o3)cc2)C[C@@H]1C [Compound 16b, 4-(2-((R)-2,4-Dimethyl-3-oxopiperazin-1-yl)ethoxy)-N-((5-(4-(((2S,4R)-2-methyl-1-propionyl-1,2,3,4-tetrahydroquinolin-4-yl)amino)phenyl)-1,3,4-oxadiazol-2-yl)methyl)benzamide] |

More lines, now with the values behind:

| Structure (SMILES) | IC90 [nM] | IC90 (Homo sapiens) [nM] |
| --- | --- | --- |
| CCC(=O)N1c2ccccc2[C@H](Nc2ccc(C(=O)NCC3(N[C@H]4CC[C@H](N[C@@H]5C[C@H](C)N(C(=O)CC)c6ccccc65)CC4)COC3)cc2)C[C@@H]1C [Compound 7j, 4-(((2S,4R)-2-Methyl-1-propionyl-1,2,3,4-tetrahydroquinolin-4-yl)amino)-N-((3-(((1R,4R)-4-(((2S,4R)-2-methyl-1-propionyl-1,2,3,4-tetrahydroquinolin-4-yl)amino)cyclohexyl)amino)oxetan-3-yl)methyl)benzamide] | 64 |  |
| CCC(=O)N1c2ccccc2[C@H](Nc2ccc(NC(=O)COCC(=O)NC3CCC(N[C@@H]4C[C@H](C)N(C(=O)CC)c5ccccc54)CC3)cc2)C[C@@H]1C (stereo partly drawn) [Compound 8b, N-((1R,4r)-4-(((2S,4R)-2-Methyl-1-propionyl-1,2,3,4-tetrahydroquinolin-4-yl)amino)cyclohexyl)-2-(2-((4-(((2S,4R)-2-methyl-1-propionyl-1,2,3,4-tetrahydroquinolin-4-yl)amino)phenyl)amino)-2-oxyethoxy)acetamide] | 13.9 |  |
| CCC(=O)N1c2ccccc2[C@H](Nc2ccc(NC(=O)C3CN(C(=O)[C@H]4CC[C@H](N[C@@H]5C[C@H](C)N(C(=O)CC)c6ccccc65)CC4)C3)cc2)C[C@@H]1C [Compound 8c, 1-((1R,4R)-4-(((2S,4R)-2-Methyl-1-propionyl-1,2,3,4-tetrahydroquinolin-4-yl)amino)cyclohexane-1-carbonyl)-N-(4-(((2S,4R)-2-methyl-1-propionyl-1,2,3,4-tetrahydroquinolin-4-yl)amino)phenyl)azetidine-3-carboxamide] | 0.26 |  |
| CCC(=O)N1c2ccccc2[C@H](Nc2ccc(Cn3cc(C(=O)N[C@H]4CC[C@H](N[C@@H]5C[C@H](C)N(C(=O)CC)c6ccccc65)CC4)nn3)cc2)C[C@@H]1C [Compound 8f, 1-(4-(((2S,4R)-2-Methyl-1-propionyl-1,2,3,4-tetrahydroquinolin-4-yl)amino)benzyl)-N-((1R,4R)-4-(((2S,4R)-2-methyl-1-propionyl-1,2,3,4-tetrahydroquinolin-4-yl)amino)cyclohexyl)-1H-1,2,3-triazole-4-carboxamide] | 1.14 |  |
| CCC(=O)N1c2ccccc2[C@H](Nc2ccc(C(=O)NCC#CC(=O)NC3CCC(N[C@@H]4C[C@H](C)N(C(=O)CC)c5ccccc54)CC3)cc2)C[C@@H]1C (stereo partly drawn) [Compound 8m, 4-(((2S,4R)-2-Methyl-1-propionyl-1,2,3,4-tetrahydroquinolin-4-yl)amino)-N-(4-(((1R,4r)-4-(((2S,4R)-2-methyl-1-propionyl-1,2,3,4-tetrahydroquinolin-4-yl)amino)cyclohexyl)amino)-4-oxobut-2-yn-1-yl)benzamide] | 0.11 |  |
| CCC(=O)N1c2ccccc2[C@H](Nc2ccc(C(=O)N3C[C@H]4C[C@@H]3CN4C(=O)[C@H]3CC[C@H](N[C@@H]4C[C@H](C)N(C(=O)CC)c5ccccc54)CC3)cc2)C[C@@H]1C [Compound 8p, 1-((2S,4R)-2-Methyl-4-(((1R,4R)-4-((1R,4R)-5-(4-(((2S,4R)-2-methyl-1-propionyl-1,2,3,4-tetrahydroquinolin-4-yl)amino)benzoyl)-2,5-diazabicyclo[2.2.1]heptane-2-carbonyl)cyclohexyl)amino)-3,4-dihydroquinolin-1(2H)-yl)propan-1-one] | 15 |  |
| CCC(=O)N1c2ccccc2[C@H](Nc2ccc(NC(=O)NC3CN(C(=O)C4CCC(N[C@@H]5C[C@H](C)N(C(=O)CC)c6ccccc65)CC4)C3)cc2)C[C@@H]1C (stereo partly drawn) [Compound 9h, 1-(1-((1R,4r)-4-(((2S,4R)-2-Methyl-1-propionyl-1,2,3,4-tetrahydroquinolin-4-yl)amino)cyclohexane-1-carbonyl)azetidin-3-yl)-3-(4-(((2S,4R)-2-methyl-1-propionyl-1,2,3,4-tetrahydroquinolin-4-yl)amino)phenyl)urea] | 7.16 |  |
| CCC(=O)N1c2ccccc2[C@H](Nc2ccc(C(=O)NC3CCN(C(=O)c4ccc(C5=N[C@@H](CC(=O)OC(C)(C)C)c6nnc(C)n6-c6sc(C)c(C)c65)cc4)CC3)cc2)C[C@@H]1C [Compound 13j, tert-Butyl 2-((S)-2,3,9-trimethyl-4-(4-(4-(4-(((2S,4R)-2-methyl-1-propionyl-1,2,3,4-tetrahydroquinolin-4-yl)amino)benzamide)piperidine-1-carbonyl)phenyl)-6H-thieno[3,2-f][1,2,4]triazolo[4,3-a][1,4]diazepin-6-yl)acetate] | 0.31 |  |
